Reference: paper PMC12346198 (Cancers, 2025)
Counter-ions that a name gives are not always drawn. Like-named read-outs stand apart in the source and are kept apart here.

Columns and labels:
[1] = system: Primary Male Hepatocytes; assay: CCK-8 cytotoxicity assay, primary male hepatocytes; format: cell-based; details: Hepatocyte, 72 h, 72 h treatment
Description: (§1) The cytotoxicity of compounds was determined by the CCK-8 assay (Cell Counting Kit-8, CK04, Dojindo Molecular Technologies, Kumamoto, Japan). Cell lines were plated at 10,000 cells/well in 96-well plates and incubated overnight to allow for adherence (5% CO2, 37 °C). […] Cells were placed back in the incubator for 72 h treatment. CCK-8 reagent was added, and plates were further incubated 1–4 h as directed by the supplier’s instructions. Optical density was measured using a Biotek Synergy H1 plate reader at 450 nm. Primary hepatocytes were plated at 30,000 cells or 50,000 cells/well and maintained according to the technical information bulletin provided by the supplier. Upon treatment, maintenance media were supplemented with 10% FBS and fresh test compound for all subsequent media changes, as directed.

[2] = system: SNU475 cells; assay: Hollow fiber assay (HFA) model of AR-SV HCC; format: in vivo; details: for Cell viability within hollow fibers (MTT assay): nude mice
Excerpt: The hollow fiber procedures were based upon those developed by Hollingshead et al. with technical consultation kindly provided by Drs. Joanna Burdette and Dan Lantvit (University of Illinois Chicago, Chicago, IL, USA). […] In order to utilize a PO dosing approach with the HFA, we extended the traditional HFA timeline to establish angiogenesis, as noted in the literature. […] Hollow fibers (KrosFlo Implant Membranes, M138615, Repligen, Waltham, MA, USA) were filled with 3 × 10^6 SNU475 cells/mL per length and heat-sealed into 2 cm lengths on Day −1. On Day 0, three fibers were implanted into 20-week-old male outbred homozygous athymic nude mice (Foxn1^nu/Foxn1^nu, The Jackson Laboratory, Bar Harbor, ME, USA) subcutaneously parallel to the spine. Following a 14-day waiting period to allow for angiogenesis around the fibers, treatment was initiated. […] On Day 21, mice were euthanized and hollow fibers were explanted. The MTT assay was performed according to the KrosFlo Implant Membrane protocol utilizing Thiazolyl Blue Tetrazolium Bromide (M2128, MilliporeSigma, Burlington, MA, USA).

[3] = system: SNU423; assay: CCK-8 cytotoxicity assay, SNU423; format: cell-based; details: Homo sapiens, SNU-423, 72 h treatment
Description: as §1

[4] = system: SNU475; assay: CCK-8 cytotoxicity assay, SNU475; format: cell-based, human; details: 72 h treatment
Description: as §1

[5] = system: HepG2; assay: CCK-8 cytotoxicity assay, HepG2; format: cell-based, human; details: Homo sapiens, HepG2, 72 h, 72 h treatment
Description: as §1

[6] = system: THLE-2; assay: CCK-8 cytotoxicity assay, THLE-2; format: cell-based; details: Homo sapiens, 72 h treatment
Description: as §1

[7] = Single-dose IV and PO pharmacokinetics in mice; format: in vivo, male C57BL/6 mice; details: for Oral bioavailability compared to parent compound: Figure S5D; for Expected plasma levels for up to 8 h post-dose: linearly scaled from PK data, BID 75 mg/kg niclosamide, 105.7 mg/kg valine–niclosamide, 87.3 mg/kg valine–compound #7, 62.9 mg/kg compound #7; for AUC: analyte = dosed compound; for Cmax: read-out: Cmax, Geo Mean; for Tmax: read-out: Tmax, Geo Mean; for clearance: single IV dose, 2 mg/kg or molar equivalent, read-out: Systemic clearance following an IV dose (converted)
Description: The in-life study and quantitative analysis of plasma samples using LC/MS were performed at Charles River Laboratories, Inc. (Wilmington, MA, USA).

[8] = Pharmacokinetic modeling of valine pro-drug conversion to parent; format: in vivo, mice; details: for k el: C57BL/6, mouse, plasma, model estimate, read-out: Kel, elimination rate constant of valine conjugate (converted); for Kmet, rate constant of conversion to parent compound: Kmet = Fm × Kel; for Fraction of pro-drug converted to parent (Fm): two-compartment model estimate
Excerpt: A total of 36 mice with available PK data were included for non-linear mixed-effects analysis using NONMEM (version 7.5.0, ICON Development Solutions, Ellicott City, MD, USA), implementing the first-order conditional estimation with interaction (FOCE-I). R (version 4.2.0, R Foundation for Statistical Computing, Vienna, AUT, http://www.r-project.org) was used for visual diagnostics. […] The analyte (valine conjugate and parent compound) plasma concentration–time data were confirmed to have a biphasic distribution and elimination and were therefore fit separately to a linear two-compartment model with a depot for oral administration. Each model was parametrized in terms of clearance (CL), the volume of distribution of the central compartment (V1), intercompartmental clearance (Q), and the volume of the peripheral compartment (V3). Interindividual variability (IIV) for each parameter was assumed to be log-normally distributed, and residual variability (RUV) was described with a proportional error model. The PK parameter estimates from these independent models (parent compound or valine conjugate) were used as initial estimates for a combined model describing the conversion and disposition of the valine conjugate to the parent drug and associated metabolites. The model estimated the fraction of pro-drug converted to parent drug (Fm), which was used to calculate the first-order rate constant of metabolite formation (Kmet) = Fm × Kel. This rate constant was used to calculate the half-life of the conversion process and the amount of metabolite formed at complete conversion. The rate of metabolite formation was then calculated as the ratio of the amount of metabolite formed to the time required for complete conversion (~5 half-lives), as detailed in Figures S8–S11.

[9] = Two-week tolerability study; details: daily PO for 14 days
Description: Mice were group-housed under conditions of a constant photoperiod (12 h light/12 h dark), temperature, and humidity with ad libitum access to water and standard pelleted chow. […] Control mice were treated with the vehicle (DMSO–Cremophor EL–water, 3:15:82 by volume). Treatments were administered PO by gavage once daily for 14 days. Mouse weights were measured every 2 days. At the study endpoint, mice were euthanized approximately 2–4 h after the last dose. Blood was collected by cardiac puncture immediately after CO2 euthanasia. At necropsy, carcasses were examined for grossly visible lesions, and organ weights were measured (liver, kidneys, spleen, urogenital tract, testes, heart, lungs, brain). Whole blood and serum were submitted to the Comparative Pathology and Digital Imaging Shared Resource at the Ohio State Comprehensive Cancer Center (OSUCCC, Columbus, OH, USA) for the determination of complete blood counts and serum chemistry.

[10] = cited from earlier work
[11] = IV, 2 mg/kg (valine conjugates 2 mg/kg EQV)
[12] = IV, 2 mg/kg (valine conjugates 2 mg/kg EQV), non-compartmental analysis
[13] = PO, 40 mg/kg (valine conjugates 40 mg/kg EQV)
[14] = male, C57BL/6, mouse, plasma, iv, 2 mg/kg, IV, 2 mg/kg (valine conjugates 2 mg/kg EQV), non-compartmental analysis, read-out: AUCall, Geo Mean
[15] = male, C57BL/6, mouse, plasma, iv, 2 mg/kg, IV, 2 mg/kg (valine conjugates 2 mg/kg EQV)
[16] = male, C57BL/6, mouse, plasma, po, 40 mg/kg, PO, 40 mg/kg (valine conjugates 40 mg/kg EQV), non-compartmental analysis, read-out: AUCall, Geo Mean
[17] = male, C57BL/6, mouse, plasma, po, 40 mg/kg, PO, 40 mg/kg (valine conjugates 40 mg/kg EQV)
[18] = male, C57BL/6, mouse, plasma, po, 40 mg/kg, single PO dose, 40 mg/kg or molar equivalent, read-out: AUCall following an oral dose
[19] = male, C57BL/6, mouse, plasma, IV, 2 mg/kg (valine conjugates 2 mg/kg EQV)
[20] = male, C57BL/6, mouse, plasma, PO, 40 mg/kg (valine conjugates 40 mg/kg EQV)
[21] = BID PO one week, niclosamide 75, valine–niclosamide 106.1, valine–compound #7 87.3, compound #7 62.9 mg/kg

## CNC(=O)c1ccc(N2C(=S)N(c3ccc(C#N)c(C(F)(F)F)c3)C(=O)C2(C)C)cc1F [Enzalutamide, enzalutamide]
[1]
  IC50: > 30 µM

## CC(=O)O[C@H]1C(=O)[C@@]2(C)[C@H]([C@H](OC(=O)c3ccccc3)[C@]3(O)C[C@H](OC(=O)[C@H](O)[C@@H](NC(=O)c4ccccc4)c4ccccc4)C(C)=C1C3(C)C)[C@]1(OC(C)=O)CO[C@@H]1C[C@@H]2O [PTX, Paclitaxel, reference compound]
[2]; 25 mg/kg IP every other day for one week
  Cell viability within hollow fibers (MTT assay): significant decrease in cell viability

## CNC(=O)c1cc(Oc2ccc(NC(=O)Nc3ccc(Cl)c(C(F)(F)F)c3)cc2)ccn1 [Sorafenib, sorafenib]
[3]
  IC50: 6.1 µM
[4]
  IC50: 4.2 µM
[4]; Homo sapiens, SNU-475, 72 h
  IC50: 4 µM
[5]
  IC50: 10.8 µM
[6]
  IC50: > 30 µM
[1]
  IC50: 5.1 µM

## CC(C)[C@H](N)C(=O)Oc1ccc(Cl)cc1C(=O)Nc1ccc([N+](=O)[O-])cc1Cl [valine–niclosamide]
[7]
  Oral bioavailability compared to parent compound: significantly higher oral bioavailability
  Expected plasma levels for up to 8 h post-dose: ~3.5 µM
[7]; [11]
  HL_Lambda_z, Geo Mean: 1.54 h
[7]; [12]
  IV: Clobs, Geo Mean: 0.02 L/h
[7]; PO
  Fold improvement in Cmax over orally administered niclosamide: 6.8 fold
  Fold increase in systemic exposure over orally administered niclosamide: 14.9 fold
[7]; [13]
  HL_Lambda_z, Geo Mean: 4.11 h
  PO: Cl_Fobs, Geo Mean: 0.05 L/h
[7]; PO, molar equivalent of 40 mg/kg
  Fold increase in plasma levels at 4 h over niclosamide: more than 16 fold
[7]; [14]
  AUC: 7.52 µM·h
[7]; [15]
  Cmax: 11.2 µM
[7]; [16]
  AUC: 48.6 µM·h
[7]; [17]
  Cmax: 11.2 µM
[7]; [18]
  AUC: 48.6 µM·h
[7]; male, C57BL/6, mouse, plasma, po, 40 mg/kg, read-out: Plasma level at 4 h after a molar equivalent oral dose
  concentration at 4 h: 3.59 µM
[7]; [19]
  Tmax: 4.8 min
[7]; [20]
  Tmax: 40.2 min
[7]; male, C57BL/6, mouse, plasma
  clearance: 0.333 mL/min
[8]
  k el: 0.000789 s⁻¹
  Kmet, rate constant of conversion to parent compound: 0.64 h⁻¹
  Fraction of pro-drug converted to parent (Fm): 23%
[2]; [21]
  Cell viability within hollow fibers (MTT assay): no differences in cell viability
[9]; 14.1, 56.4, 141.0 mg/kg
  Impact on body weight: no significant impact
[9]; ALT, AST, albumin
  Impact on liver enzyme levels: no significant impact
[9]; versus vehicle
  Spleen weights as a percentage of body weight: increase at the highest dose level

## CNC(=O)c1cc(Oc2ccc(NC(=O)Nc3ccc(Cl)c(C(F)(F)F)c3)c(F)c2)ccn1 [Regorafenib, regorafenib]
[3]
  IC50: 5.5 µM
[4]
  IC50: 1.63 µM
[4]; Homo sapiens, SNU-475, 72 h
  IC50: 1.6 µM
[5]
  IC50: 11.9 µM
[6]
  IC50: > 30 µM
[1]
  IC50: > 30 µM

## CC(C)[C@H](N)C(=O)Oc1ccc(Cl)cc1C(=O)Nc1ccc(C(F)(F)F)cc1Cl [valine–compound #7]
[7]
  Oral bioavailability compared to parent compound: this was not observed
  Expected plasma levels for up to 8 h post-dose: 3.7 µM
[7]; [11]
  HL_Lambda_z, Geo Mean: 4.20 h
[7]; [12]
  IV: Clobs, Geo Mean: 0.01 L/h
[7]; [13]
  HL_Lambda_z, Geo Mean: 6.46 h
  PO: Cl_Fobs, Geo Mean: 0.05 L/h
[7]; [14]
  AUC: 13.5 µM·h
[7]; [15]
  Cmax: 10.1 µM
[7]; [16]
  AUC: 62.1 µM·h
[7]; [17]
  Cmax: 7.71 µM
[7]; [18]
  AUC: 62.1 µM·h
[7]; [19]
  Tmax: 4.8 min
[7]; [20]
  Tmax: 75.6 min
[7]; male, C57BL/6, mouse, plasma
  clearance: 0.167 mL/min
[8]
  k el: 0.00147 s⁻¹
  Kmet, rate constant of conversion to parent compound: 1.32 h⁻¹
  Fraction of pro-drug converted to parent (Fm): 25%
[2]; 87.3 mg/kg BID PO, two mice excluded
  Toxicity in HFA study mice: apparent toxicity
[2]; [21]
  Cell viability within hollow fibers (MTT assay): no differences in cell viability

## O=C(Nc1ccc([N+](=O)[O-])cc1Cl)c1cc(Cl)ccc1O [NEN, niclosamide ethanolamine salt]
[10]; 40 mg/kg dose PO
  Plasma niclosamide concentration 4 h after oral administration: roughly 0.72 µM
[10]; 4 h after oral administration
  Improvement of plasma niclosamide concentration over niclosamide: more than seven-fold

## COc1cc2nccc(Oc3ccc(NC(=O)NC4CC4)c(Cl)c3)c2cc1C(N)=O [Lenvatinib, lenvatinib]
[3]
  IC50: > 30 µM
[4]; Homo sapiens, SNU-475, 72 h
  IC50: 13 µM
[5]
  IC50: > 30 µM
[6]
  IC50: 25.1 µM
[1]
  IC50: > 30 µM
